From PubChem BioAssay (NCI)
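Exposure lasted 48 hours, with cells grown in 96-well plates and compounds tested at five concentrations. GI50 = concentration required for 50% inhibition of growth. At the TGI there is no net growth.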

Columns and labels:
Experiment in all cases: NCI-60 cell line screen, 48 h
DU-145 prostate = tested on: DU-145 prostate
HOP-62 NSCLC = tested on: HOP-62 NSCLC
NCI-H522 lung = tested on: NCI-H522 lung
NCI/ADR-RES ovarian = tested on: NCI/ADR-RES ovarian
KM12 colon = tested on: KM12 colon
U251 CNS = tested on: U251 CNS
TK-10 renal = tested on: TK-10 renal
HS 578T breast = tested on: HS 578T breast
SW-620 colon = tested on: SW-620 colon
PC-3 prostate = tested on: PC-3 prostate

| Compound | GI50 (DU-145 prostate) | TGI (DU-145 prostate) | GI50 (HOP-62 NSCLC) | TGI (HOP-62 NSCLC) | GI50 (NCI-H522 lung) | TGI (NCI-H522 lung) | GI50 (NCI/ADR-RES ovarian) | TGI (NCI/ADR-RES ovarian) | GI50 (KM12 colon) | TGI (KM12 colon) | GI50 (U251 CNS) | TGI (U251 CNS) | GI50 (TK-10 renal) | TGI (TK-10 renal) | GI50 (HS 578T breast) | TGI (HS 578T breast) | GI50 (SW-620 colon) | TGI (SW-620 colon) | GI50 (PC-3 prostate) | TGI (PC-3 prostate) |
| --- | --- | --- | --- | --- | --- | --- | --- | --- | --- | --- | --- | --- | --- | --- | --- | --- | --- | --- | --- | --- |
| CCN1Cc2c(/C=C/c3ccccc3)nc3ccc(OC)cc3c2N(c2cccc(Cl)c2)C1 | 1.94 µM | 3.47 µM | 1.64 µM | 3.09 µM | 1.4 µM | 2.88 µM | 2.1 µM | 5.22 µM | 1.81 µM | 3.49 µM | 1.71 µM | 3.3 µM | 1.62 µM | 3.43 µM | 1.75 µM | 4.88 µM | 1.67 µM | 3.29 µM | 1.79 µM | 5.64 µM |
| Clc1ccc2c(NCCNc3nc(N4CCCCC4)nc4ccccc34)ccnc2c1 | 3.24 µM | 12.9 µM | 2.62 µM | 8.84 µM | 1.75 µM | 3.85 µM | 3.5 µM | > 100 µM | 3.39 µM | 12.7 µM | 2.08 µM | 5.15 µM | 2.15 µM | 5.13 µM | 3.04 µM | 8.39 µM | 1.34 µM | 3.33 µM | 3.17 µM | 14.4 µM |
| O=C(O)c1ccccc1C(=O)Nc1cc2c(cc1Br)-c1ccccc1C2=O |  | > 100 µM |  | > 100 µM |  | > 100 µM |  | > 100 µM |  | > 100 µM |  | > 100 µM |  | > 100 µM |  | > 100 µM |  | > 100 µM |  | > 100 µM |
| COc1cc2c3c(n(CCCN=[N+]=[N-])c(=O)c2cc1OC)-c1ccc(NC(C)=O)cc1C3=O | > 50 µM | > 50 µM | > 50 µM | > 50 µM | > 50 µM | > 50 µM | > 50 µM | > 50 µM | > 50 µM | > 50 µM | > 50 µM | > 50 µM | > 50 µM | > 50 µM | > 50 µM | > 50 µM | > 50 µM | > 50 µM | > 50 µM | > 50 µM |
| Nc1nc(N)c2cc(S(=O)(=O)c3ccccc3)ccc2n1 | 5.74 µM | > 100 µM | 4.14 µM | > 100 µM | 4.56 µM | > 100 µM | 3.52 µM | > 100 µM | 4.23 µM | > 100 µM | 1.24 µM | > 100 µM | 4.36 µM | > 100 µM | 6.93 µM | > 100 µM | 0.512 µM | > 100 µM | 0.838 µM | > 100 µM |
| COC(=O)C(Br)(C(=O)OC)C(Br)C(Br)C(Br)c1ccccc1 (stereo not given) | 2.31 µM | 5.71 µM | 6.31 µM | 15.7 µM | 0.573 µM | 1.53 µM | 3.28 µM | 9.99 µM | 7.83 µM | 21 µM | 3.99 µM | 10.6 µM | 2.35 µM | 6.19 µM | 6.25 µM | 15 µM | 1.64 µM | 3.07 µM | 4.58 µM | 17.3 µM |
| CN1CCC(n2cnc(-c3ccc(F)cc3)c2-c2ccnc(Nc3ccccc3)n2)CC1 | 10.4 µM | > 25 µM | 13.1 µM | > 25 µM | 5.73 µM | > 15.7 µM | 7.65 µM | > 25 µM | 8.11 µM | > 25 µM | 6.7 µM | > 25 µM | 2.34 µM | > 25 µM | 11.5 µM | > 25 µM | 7.88 µM | > 25 µM | 12.2 µM | > 25 µM |
| O=C(Oc1c(Cl)c(Cl)c(Cl)c(Cl)c1Cl)C1CCCN1C(=O)OCc1ccccc1 (stereo not given) | 4.49 µM | 20 µM | 3.45 µM | 14.9 µM | 2.47 µM | 6.84 µM | 3.15 µM | 11.2 µM | 3.62 µM | 13 µM | 3.34 µM | 12.6 µM | 3.13 µM | 8.85 µM | 2.92 µM | 10.4 µM | 3.44 µM | 14.4 µM | 2.95 µM | 11.6 µM |
| C#CCn1c2c(c3ccccc3c1=O)C(=O)c1ccccc1-2 |  | 44.4 µM |  | 24.1 µM |  | 42.2 µM |  | 88.7 µM |  | > 100 µM |  | 42.5 µM |  | 61.6 µM |  | 34.8 µM |  | > 100 µM |  | > 100 µM |
